{
  "source": "ChEMBL document CHEMBL1155739",
  "about": "“New indole alkaloids from the bark of Nauclea orientalis” (J Nat Prod, 2001)",
  "key": {"[1]": {"experiment": "(§1) Inhibition of Candida albicans secreted aspartic protease"}, "Candida albicans": {"test_system": "Candida albicans", "experiment": "as §1"}},
  "note": "Active and inactive are the calls of the source. The rule behind the calls is not given here.",
  "data": [
    {"smiles": "CC(C)CC(=O)N[C@H](C(=O)N[C@H](C(=O)N[C@@H](CC(C)C)[C@@H](O)CC(=O)N[C@@H](C)C(=O)N[C@@H](CC(C)C)[C@@H](O)CC(=O)O)C(C)C)C(C)C", "note": "[PEPSTATIN]", "values": [
      {"measurement": "IC50", "setting": "[1]", "value": 6, "unit": "ng/mL"}
    ]},
    {"smiles": "C=C[C@@H]1C2=C[C@H]3c4[nH]c5ccccc5c4CCN3C(=O)C2=C(O)O[C@H]1O[C@@H]1O[C@H](CO)[C@@H](O)[C@H](O)[C@H]1O", "values": [
      {"measurement": "Activity", "setting": "Candida albicans", "value": "inactive"}
    ]}
  ]
}
